This note sets out measurements from PubChem BioAssay (NCI).

Some test systems named below: HT29 colon; IGROV1 ovarian; K-562 leukemia; KM12 colon; SF-295 CNS; SK-OV-3 ovarian; U251 CNS; UO-31 renal; CAKI-1 renal; LOX IMVI melanoma.
Test in all cases: DTP human tumour cell line panel, 48 h

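Following 48 hours of exposure in 96-well plates, responses at five concentrations were used to interpolate endpoints linearly. GI50 = concentration required for 50% inhibition of growth. TGI is the concentration that stops growth completely.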

For the molecule `Cn1cc(-c2csc(-c3cn(CCN4CCOCC4)c4ccc(F)cc34)n2)c2cccnc21`, the GI50 in the test with HT29 colon is 2.85 µM; in the test on IGROV1 ovarian it was 2.91 µM; in the test on K-562 leukemia, 2.94 µM; in the test with KM12 colon, 2.85 µM; with SF-295 CNS, 2.35 µM; with SK-OV-3 ovarian it was 5.41 µM. Also, the results for the GI50 in the test with U251 CNS and in the test on UO-31 renal were 3.35 µM and 2.2 µM, respectively. Further, the concentration for total growth inhibition (TGI) in the test with HT29 colon was determined as 17.7 µM; with IGROV1 ovarian, 14.1 µM; in the test on K-562 leukemia, 10.3 µM; with KM12 colon, 11.1 µM; in the test with SF-295 CNS it was 7.15 µM; with SK-OV-3 ovarian, 51.6 µM. The figures for the TGI with U251 CNS and with UO-31 renal were 22.2 µM and 7.88 µM, respectively.

On to `COc1ccc2nc(-c3ccccc3)cc(Nc3ccc(/C(C)=N/O)cc3)c2c1`, for which the GI50 with CAKI-1 renal was 2.5 µM; in the test on HT29 colon it was 2.7 µM; in the test with IGROV1 ovarian, 13.4 µM; in the test with K-562 leukemia, 2.2 µM; with KM12 colon it was 3.74 µM; in the test with SF-295 CNS, 2.21 µM. Also, the GI50 is 2.15 µM in the test on SK-OV-3 ovarian, 6.7 µM in the test with U251 CNS and 41.3 µM with UO-31 renal. In addition, the TGI in the test on HT29 colon was > 100 µM; in the test on IGROV1 ovarian, > 22 µM; in the test with K-562 leukemia it was > 100 µM; with KM12 colon, > 100 µM; in the test with SF-295 CNS, 5.23 µM; in the test on SK-OV-3 ovarian, 5.22 µM. Also, the TGI with U251 CNS is > 67.1 µM; in the test on UO-31 renal, > 100 µM.

As for `CC(=O)OCCC/C(=C\c1ccc2ccccc2c1)[N+](=O)[O-]`, the GI50 was 1.5 µM in the test with CAKI-1 renal; 2.3 µM in the test with HT29 colon; 1.89 µM with IGROV1 ovarian; 2.01 µM with K-562 leukemia; 1.59 µM in the test with KM12 colon; 1.96 µM with SF-295 CNS. Further, the GI50 in the test with SK-OV-3 ovarian is 5.26 µM; in the test with UO-31 renal it was 1.16 µM. The concentration for total growth inhibition (TGI) was 3.28 µM in the test with CAKI-1 renal; 5.59 µM in the test on HT29 colon; 3.98 µM in the test on IGROV1 ovarian; > 100 µM with K-562 leukemia; 3.18 µM in the test on KM12 colon; 4.55 µM in the test on SF-295 CNS. Besides, the TGI was 18.5 µM in the test with SK-OV-3 ovarian and 2.6 µM in the test on UO-31 renal.

As for `O=C1C=C(N2CC2)c2ccccc2C1=O`, the GI50 in the test with HT29 colon was 2.58 µM; in the test with IGROV1 ovarian, 1.79 µM; with K-562 leukemia, 2.6 µM; in the test on KM12 colon it was 1.78 µM; in the test with LOX IMVI melanoma it was 2.11 µM; with SF-295 CNS it was 1.63 µM. In addition, the values for the GI50 in the test on SK-OV-3 ovarian, with U251 CNS and in the test with UO-31 renal were 1.92 µM, 1.55 µM and 1.51 µM, respectively. Also, the TGI in the test on HT29 colon worked out at 5.57 µM; in the test with IGROV1 ovarian, 3.23 µM; in the test on K-562 leukemia it was 5.66 µM; in the test on KM12 colon it was 3.27 µM; in the test on LOX IMVI melanoma, 13 µM; in the test with SF-295 CNS, 3.12 µM. Moreover, the TGI with SK-OV-3 ovarian came to 3.41 µM; with U251 CNS, 3.01 µM; in the test with UO-31 renal, 2.87 µM.

`COc1cc(C/C=C/c2ccccc2)c(OC)cc1O`: the TGI with CAKI-1 renal was found to be 65.7 µM; in the test on HT29 colon it was 37.8 µM; in the test with IGROV1 ovarian, 37.2 µM; with K-562 leukemia, 31.6 µM; in the test with KM12 colon, 30.7 µM; in the test with LOX IMVI melanoma it was 37.4 µM. Further, the TGI was 38.2 µM in the test on U251 CNS and 31.4 µM in the test with UO-31 renal.

As for `O=C1c2c(c3c4ccccc4n4c3c3c2c2ccccc2n3C/C=C\C4)C(=O)N1Cc1ccccc1`, the TGI with HT29 colon, in the test with IGROV1 ovarian, with K-562 leukemia, with KM12 colon, with LOX IMVI melanoma and in the test with SF-295 CNS was > 100 µM in each case. In addition, the concentration for total growth inhibition (TGI) with SK-OV-3 ovarian, in the test with U251 CNS and with UO-31 renal was > 100 µM each time.

Take `COc1cc2c(c3oc(-c4ccc5c(c4)OCO5)c(O)c(=O)c13)CCC(C)(C)O2`: the TGI in the test on HT29 colon, in the test on IGROV1 ovarian, with K-562 leukemia, with KM12 colon, with LOX IMVI melanoma and in the test with SF-295 CNS was > 100 µM in each case. The TGI in the test with SK-OV-3 ovarian and in the test with UO-31 renal was > 100 µM throughout.

On to `O=C1c2cnccc2Cc2cccc3c2N1c1ccccc1S3`, for which the TGI with CAKI-1 renal was 32.6 µM; with HT29 colon, 74.8 µM; in the test with IGROV1 ovarian, 98.9 µM; in the test on K-562 leukemia, > 100 µM; with KM12 colon, 66 µM; with LOX IMVI melanoma, 57.5 µM. Further, the figures for the concentration for total growth inhibition (TGI) in the test with SF-295 CNS and in the test on U251 CNS were 63.2 µM and 34 µM, respectively.

Take `COc1ccc(/C=C/c2nc(N3CCOCC3)c3cc(F)c(F)cc3n2)cc1OC`: the GI50 is 3.23 µM in the test on CAKI-1 renal; 47.4 µM in the test with IGROV1 ovarian; 4.59 µM in the test with KM12 colon; 5.07 µM in the test on LOX IMVI melanoma; 3.9 µM in the test with SF-295 CNS; 11 µM with SK-OV-3 ovarian. In addition, the GI50 with U251 CNS is 5.9 µM; with UO-31 renal, 3.65 µM. Moreover, the total growth inhibition concentration (TGI) in the test on CAKI-1 renal, in the test on IGROV1 ovarian, in the test with KM12 colon, in the test with LOX IMVI melanoma, with SF-295 CNS and in the test with SK-OV-3 ovarian was > 100 µM each time. Besides, the TGI with U251 CNS and with UO-31 renal was > 100 µM throughout.

Turning to `O=C(O)c1cn(C2CC2)c2cc(N3CCN(S(=O)(=O)c4ccc(Cl)c(Cl)c4)CC3)c(F)cc2c1=O`, the GI50 is 3.77 µM in the test on HT29 colon; 3.92 µM with K-562 leukemia; 3.62 µM with KM12 colon; 3.33 µM in the test on U251 CNS; 2.58 µM in the test on UO-31 renal. Also, the TGI in the test with HT29 colon, with K-562 leukemia, in the test on KM12 colon, in the test on U251 CNS and in the test on UO-31 renal was > 100 µM each time.

Regarding `Cn1cc2ccccc2c1-c1nc(F)nc(Oc2ccc3c(c2)CC[C@@H]2C3CC[C@]3(C)C(O)CCC23)n1` (some centres not stated), the TGI with IGROV1 ovarian is 30.8 µM; with K-562 leukemia, > 100 µM; in the test with LOX IMVI melanoma, 36.9 µM; in the test on SF-295 CNS, 30.2 µM; in the test with SK-OV-3 ovarian, 36.3 µM; with U251 CNS it was 28 µM. Besides, the TGI in the test on UO-31 renal was determined as 63.6 µM.

Turning to `COc1ccc2oc(-c3ccncc3)cc(=O)c2c1`, the TGI in the test with CAKI-1 renal, in the test with HT29 colon, with IGROV1 ovarian, with K-562 leukemia, in the test on KM12 colon and in the test with LOX IMVI melanoma was > 100 µM each time. In addition, the TGI with SF-295 CNS, with U251 CNS and in the test on UO-31 renal was > 100 µM each time.

As a reminder, the GI50 is the concentration giving 50% growth inhibition. Usually TGI stands for the concentration at which net growth stops. Read a low TGI as more potent growth arrest.
